# Data taken from patent US11530213B2, “Naphthyridinone derivatives and their use in the treatment of arrhythmia” (NOVARTIS AG, priority 2016, dated 2022).
# Molecular target: GIRK1/4 (Homo sapiens (Human), UniProt P48544+P48549)
# Assay: GIRK1/4 inhibition, Quattro (IonWorks) population patch clamp, inward potassium current in GIRK 1/4 HEK293 stable cells (test assay No. 1)
# Assay type: cell-based
# Details: percentage of current inhibition normalized to DMSO-only control
# Description: The activity of a compound according to the present invention can be assessed by the following in vitro method. • 1. Buffers: • a. External buffer: 10 mM NaCl, 50 mM Na Gluconate, 80 mM K Gluconate, 1.8 mM CaCl2, 1 mM MgCl2, 10 mM HEPES, 10 mM Glucose, pH 7.4; osmolality […]. • b. Internal buffer: 30 mM KCl, 100 mM K Gluconate, 1 mM MgCl2, 10 mM HEPES, 1 mM EGTA, 10 mM NaCl, pH 7.2; osmolality […]. • 2. Compounds: • a. Prepare seven-fold compound dilution series (10 mM to 20 uM) in 100% DMSO, in 384-well polypropylene plates. • b. Propafenone (Sigma Aldrich, catalog number P4670) is used as a positive control and DMSO for neutral control • c. Resuspend 1 ul of compounds in DMSO into 65.7 ul external buffer in 384-well polypropylene plate and load into Plate 1 section of Molecular Devices Quattro • 3. Quattro setup: • a. Load 384-well Population Patch Plate (Molecular Devices #9000-0902) into Quattro • b. Fill Quattro F-soak trough with 20% DMSO and 50% EtOH • c. Fill Quattro buffer trough with external buffer • d. Attach internal buffer flask to Quattro internal buffer tubing • e. Attach PBS (Phosphate Buffered Saline, minus Ca^++ and Mg^++, pH7.4) bottle to F-head & E-head wash on Quattro • 4. Antibiotic: • a. Resuspend 5.6 mg amphotericin B (Sigma Aldrich, catalog number A2411) in 175 ul DMSO • b. Add the resulting solution to 50 ml internal buffer, mix and attach to antibiotic tubing port on Quattro • 5. Cells: • a. Use GIRK 1/4 HEK293 stable cells (obtained from ChanTest, 14656 Neo Parkway, Cleveland, Ohio 44128) grown to […] confluency in the following cell culture medium: DMEM containing 10% (v/v) Fetal Bovine Serum, Penicillin/Streptomycin (at “1×” concentration from a 100× stock), 0.5 mg/ml G418 and 0.1 mg/ml Zeocin. • b. Wash cells with PBS (minus Ca^++ and Mg^++), Detach cells using Detachin (Genlantis, 11011 Torreyana, San Diego, Calif. 92121), and resuspend in external buffer (5 ml final volume at 2.0-2.1×10^6 cells/ml) • c. Load into cell trough of Quattro • 6. Assay Protocol: • Quattro is controlled using IonWorks v2 software to perform the following steps: • a. Add 3.5 ul cells plus 3.5 ul external buffer to wells of Quattro Patch Plate • b. Circulate amphotericin B and internal buffer onto cells • c. Apply the following voltage protocol: Pulse 1: 15 mV for 300 milliseconds (ms), followed by Pulse 2: −120 mV for 400 ms, then Pulse 3: −15 mV for 400 ms, and finally Pulse 4: −120 mV to 40 mV over 500 ms (this is a voltage ramp). • d. Measure magnitude of inward potassium current at time point between 1200-1220 ms from start of Pulse 1 (i.e. during the voltage ramp phase). • e. Add 3.5 ul of diluted compounds (or DMSO) to wells and repeat steps c-d (final compound concentrations are 50 uM to 0.1 uM, for potent compounds 0.5 uM to 0.01 uM and each concentration is tested in quadruplicate—i.e. in 4 separate wells). • f. The difference between current magnitude pre vs. post-compound gives a measure of GIRK1/4 inhibition. • 7. Data analysis:
# IC50 values are calculated by plotting the percentage of current inhibition (normalized to the DMSO-only control) as a function of compound concentration using standard data analysis software.
# GIRK1/4, sequence (P48549 whole entry): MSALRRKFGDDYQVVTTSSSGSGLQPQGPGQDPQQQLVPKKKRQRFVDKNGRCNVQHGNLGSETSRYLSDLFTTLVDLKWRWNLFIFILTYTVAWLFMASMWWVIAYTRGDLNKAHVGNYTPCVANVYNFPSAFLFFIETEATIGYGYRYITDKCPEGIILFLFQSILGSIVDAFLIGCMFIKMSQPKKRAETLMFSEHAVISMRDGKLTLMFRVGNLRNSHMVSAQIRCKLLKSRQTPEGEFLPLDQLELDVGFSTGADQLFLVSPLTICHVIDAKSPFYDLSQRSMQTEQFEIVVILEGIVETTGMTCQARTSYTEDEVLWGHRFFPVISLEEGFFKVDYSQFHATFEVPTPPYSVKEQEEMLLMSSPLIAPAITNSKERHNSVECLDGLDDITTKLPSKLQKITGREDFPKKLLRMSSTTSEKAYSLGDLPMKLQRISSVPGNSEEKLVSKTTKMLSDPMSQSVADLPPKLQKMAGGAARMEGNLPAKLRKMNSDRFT
# GIRK1/4, sequence (P48544 whole entry): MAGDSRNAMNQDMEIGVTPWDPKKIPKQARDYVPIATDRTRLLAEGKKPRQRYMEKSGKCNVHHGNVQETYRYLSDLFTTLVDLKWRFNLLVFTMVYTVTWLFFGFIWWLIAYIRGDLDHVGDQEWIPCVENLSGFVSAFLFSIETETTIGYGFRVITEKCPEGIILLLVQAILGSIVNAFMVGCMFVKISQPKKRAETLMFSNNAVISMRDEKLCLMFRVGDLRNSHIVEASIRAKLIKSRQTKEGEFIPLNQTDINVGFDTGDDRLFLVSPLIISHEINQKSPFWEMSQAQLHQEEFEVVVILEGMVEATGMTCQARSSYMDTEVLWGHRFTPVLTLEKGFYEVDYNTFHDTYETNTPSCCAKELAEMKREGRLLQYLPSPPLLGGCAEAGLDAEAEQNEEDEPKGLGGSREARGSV
row,IC50 [nM],Structure (SMILES)
1,366,"O=c1cc(CO)n(-c2c(Cl)cccc2Cl)c2c(Cl)cnc(CCC(O)CO)c12 (single isomer, unassigned) [Example 77, 8-chloro-1-(2,6-dichlorophenyl)-5-(3,4-dihydroxybutyl)-2-(hydroxymethyl)-1,6-naphthyridin-4(1H)-one]"
2,197,"Cc1cc(=O)c2c(NCCc3c[nH]cn3)cncc2n1-c1c(Cl)cc(C#N)cc1Cl [Example 56, 4-(5-((2-(1H-imidazol-4-yl)ethyl)amino)-2-methyl-4-oxo-1,7-naphthyridin-1(4H)-yl)-3,5-dichlorobenzontrile]"
3,56,"Cc1cc(=O)c2c(NOCCO)ncc(Cl)c2n1-c1c(Cl)cc(C#N)cc1Cl [Example 44, 3,5-dichloro-4-(8-chloro-5-((2-hydroxyethoxy)amino)-2-methyl-4-oxo-1,6-naphthyridin-1(4H)-yl)benzonitrile]"
4,37,"Cc1cc(=O)c2c(C(=O)CO)ncc(Cl)c2n1-c1c(Cl)cccc1Cl [Example 86, 8-Chloro-1-(2,6-dichlorophenyl)-5-(2-hydroxyacetyl)-2-methyl-1,6-naphthyridin-4(1H)-one]"
5,29,"COCc1cc(=O)c2c(OCC(O)CO)ncc(Cl)c2n1-c1c(Cl)cccc1Cl (centres unmarked) [Example 54, 8-chloro-1-(2,6-dichlorophenyl)-5-(2,3-dihydroxypropoxy)-2-(methoxymethyl)-1,6-naphthyridin-4(1H)-one]"
6,59,"Cc1cc(=O)c2c(Nc3nnn(C)n3)ncc(Cl)c2n1-c1c(Cl)cccc1Cl [Example 47, 8-chloro-1-(2,6-dichlorophenyl)-2-methyl-5-((2-methyl-2H-tetrazol-5-yl)amino)-1,6-naphthyridin-4(1H)-one]"
7,1230,"O=c1cc(CO)n(-c2c(Cl)cccc2Cl)c2c(Cl)cnc(COC(CO)CO)c12 [Example 88, 8-Chloro-1-(2,6-dichlorophenyl)-5-(((1,3-dihydroxypropan-2-yl)oxy)methyl)-2-(hydroxymethyl)-1,6-naphthyridin-4(1H)-one]"
8,34,"CCc1cc2c(c(OCC(O)CO)n1)c(=O)cc(C)n2-c1c(Cl)cccc1Cl (centres unmarked) [Example 66, 1-(2,6-Dichlorophenyl)-5-(2,3-dihydroxpropoxy)-7-ethyl-2-methyl-1,6-naphthyridin-4(1H)-one]"
9,11,"Cc1cc(=O)c2c(OCC3COC3)ncc(Cl)c2n1-c1c(Cl)cccc1Cl [Example 50, 8-chloro-1-(2,6-dichlorophenyl)-2-methyl-5-(oxetan-3-ylmethoxy)-1,6-naphthyridin-4(1H)-one]"

# Continued, compound first:
row,Structure (SMILES),IC50 [nM]
1,"Cc1cc(=O)c2c(NCCNS(C)(=O)=O)cncc2n1-c1c(Cl)cc(C#N)cc1Cl [Example 22, N-(2-((1-(2,6-dichloro-4-cyanophenyl)-2-methyl-4-oxo-1,4-dihydro-1,7-naphthyridin-5-yl)amino)ethyl)methanesulfonamide]",148
2,"CC(C)(O)C(O)COc1ncc(Cl)c2c1c(=O)cc(CO)n2-c1c(Cl)cccc1Cl (centres unmarked) [Example 4, 8-chloro-1-(2,6-dichlorophenyl)-5-(2,3-dihydroxy-3-methylbutoxy)-2-(hydroxymethyl)-1,6-naphthyridin-4(1H)-one]",141
3,"Cc1cc(=O)c2c(OCC(O)C(C)(C)O)ncc(Cl)c2n1-c1c(Cl)cccc1Cl (centres unmarked) [Example 40, 8-chloro-1-(2,6-chlorophenyl)-5-(2,3-dihydroxy-3-methylbutoxy)-2-methyl-1,6-naphthyridin-4(1H)-one]",13
4,"O=c1cc(CO)n(-c2c(Cl)cccc2Cl)c2c(Cl)cnc(OC(CO)CO)c12 [Example 9, 8-chloro-1-(2,6-dichlorophenyl)-5-((1,3-dihydroxypropan-2-yl)oxy)-2-(hydroxymethyl)-1,6-naphthyridin-4(1H)-one]",257
5,"O=c1cc(CO)n(-c2c(Cl)cccc2Cl)c2c(Cl)cnc(OCC3(CO)COC3)c12 [Example 5, 8-chloro-1-(2,6-dichlorophenyl)-2-(hydroxymethyl)-5-((3-(hydroxymethyl)oxetan-3-yl)methoxy)-1,6-naphthyridin-4(1H)-one]",235
6,"Cc1cc(=O)c2c(NCCOCCOCCOCCO)ncc(Cl)c2n1-c1c(Cl)cccc1C#N [Example 16, 3-chloro-2-(8-chloro-5-((2-(2-(2-(2-hydroxyethoxy)ethoxy)ethoxy)ethyl)amino)-2-methyl-4-oxo-1,6-naphthyridin-1(4H)-yl)benzonitrile]",176
7,"Cc1cc(=O)c2c(NCCOCCOCCOCCO)ncc(Cl)c2n1-c1c(Cl)cccc1Cl [Example 37, 8-chloro-1-(2,6-dichlorophenyl)-5-((2-(2-(2-(2-hydroxyethoxy)ethoxy)ethoxy)ethyl)amino)-2-methyl-1,6-naphthyridin-4(1H)-one]",6
8,"Cc1cc(=O)c2c(OCCOCCOCCOCCO)ncc(Cl)c2n1-c1c(Cl)cccc1Cl [Example 30, 8-chloro-1-(2,6-dichlorophenyl)-5-(2-(2-(2-(2-hydroxyethoxy)ethoxy)ethoxy)ethoxy)-2-methyl-1,6-naphthyridin-4(1H)-one]",25
9,"Cc1cc(=O)c2c(OCC(C)(C)O)ncc(Cl)c2n1-c1c(Cl)cccc1Cl [Example 42, 8-chloro-1-(2,6-dichlorophenyl)-5-(2-hydroxy-2-methylpropoxy)-2-methyl-1,6-naphthyridin-4(1H)-one]",15
10,"O=c1cc(CO)n(-c2c(Cl)cccc2Cl)c2c(Cl)cnc(OCCO)c12 [Example 12, 8-chloro-1-(2,6-dichlorophenyl)-5-(2-hydroxyethoxy)-2-(hydroxymethyl)-1,6-naphthyridin-4(1H)-one]",36
11,"COCCOCCOCCOCCOCCOCCOc1ncc(Cl)c2c1c(=O)cc(C)n2-c1c(Cl)cccc1Cl [Example 15, 5-(2,5,8,11,14,17-hexaoxanonadecan-19-yloxy)-8-chloro-1-(2,6-dichlorophenyl)-2-methyl-1,6-naphthyridin-4(1H)-one]",25
12,"Cc1cc(=O)c2c(OCC(O)C(C)(C)O)ncc(Cl)c2n1-c1c(Cl)cccc1Cl (single isomer, unassigned) [Example 59, 8-chloro-1-(2,6-dichlorophenyl)-5-(2,3-dihydroxy-3-methylbutoxy)-2-methyl-1,6-naphthyridin-4(1H)-one]",14
13,"O=c1cc(CO)n(-c2c(Cl)cccc2Cl)c2c(Cl)cnc(OCC(O)CO)c12 (centres unmarked) [Example 3, 8-chloro-1-(2,6-dichlorophenyl)-5-(2,3-dihydroxypropoxy)-2-(hydroxymethyl)-1,6-naphthyridin-4(1H)-one]",131
14,"Cc1cc(=O)c2c(OCCOCCOCCOCCOCCOCCO)ncc(Cl)c2n1-c1c(Cl)cccc1Cl [Example 19, 8-chloro-1-(2,6-dichlorophenyl)-5-((17-hydroxy-3,6,9,12,15-pentaoxaheptadecyl)oxy)-2-methyl-1,6-naphthyridin-4(1H)-one]",98
15,"Cc1cc(=O)c2c(OCC(C)(CO)CO)ncc(Cl)c2n1-c1c(Cl)cccc1Cl [Example 41, 8-chloro-1-(2,6-dichlorophenyl)-5-(3-hydroxy-2-(hydroxymethyl)-2-methylpropoxy)-2-methyl-1,6-naphthyridin-4(1H)-one]",28
16,"O=c1cc(CO)n(-c2c(Cl)cccc2Cl)c2c(Cl)cnc(NCCOCCOCCOCCO)c12 [Example 13, 8-chloro-1-(2,6-dichlorophenyl)-5-((2-(2-(2-(2-hydroxyethoxy)ethoxy)ethoxy)ethyl)amino)-2-(hydroxymethyl)-1,6-naphthyridin-4(1H)-one]",71
17,"Cc1cc(=O)c2c(NCC(O)C(=O)NCCO)ncc(Cl)c2n1-c1c(Cl)cccc1Cl (centres unmarked) [Example 17, 3-((8-chloro-1-(2,6-dichlorophenyl)-2-methyl-4-oxo-1,4-dihydro-1,6-naphthyridin-5-yl)amino)-2-hydroxy-N-(2-hydroxyethyl)propanamide]",60
